Consider 15 compounds from patent publication US8946283B2, “Composition for preventing or treating obesity, dyslipidemia, fatty liver or diabetes containing indole-3-carbinol derivative as active ingredient” (Industry-Academic Cooperation Foundation, Yonsei University, priority 2011, dated 2015).

One assay relates to 3T3-L1 cells. Kind of assay: Inhibition of adipocyte differentiation, Oil Red O staining of triglyceride. In kind it is cell-based, mouse. The note with it: for differentiation of the preadipocytes 3T3L1: 0.1, 1, 10, 50 and 100 μM, 14 days, vs DMSO control; for triglyceride accumulation in cells: 3T3-L1 cells, FIGS. 1-3. On the procedure: Mouse adipocyte cell line (3T3-L1) was used to investigate the effect of various indole-3-carbinol derivatives on differentiation and growth of adipocytes. The preadipocytes, 3T3-L1 cells, were seeded on a 12-well plate and cultured to confluency using Dulbecco's modified Eagle's medium (DMEM) containing 1% penicillin-streptomycin, 1% nonessential amino acid and 10% fatal bovine serum (FBS), in a 5% CO2 incubator at 37° C. The 3T3-L1 cells grown to confluency were cultured for 2 days in MDI medium containing 0.5 mM isobutylmethylxanthine, 1 μM dexamethasone and 1 μg/mL insulin to differentiate them into adipocytes. Then, the cells were further cultivated in DMEM containing 1 μg/mL insulin to differentiate them into mature adipocytes. The cells were further cultured for 10 more days while replacing DMEM every other day to obtain fully differentiated adipocytes.
From the first day when MDI was added to the 3T3-L1 cells, 16 indole-3-carbinol derivative compounds were treated at concentrations of 0.1, 1, 10, 50 and 100 μM with 2-day intervals. The structure and molecular weight of the 16 indole-3-carbinol derivatives (B518, B521, B525, B528, B538, B540, B542, B544, B545, B546, B547, B549, B551, B556, B558 and B561) are described in Table 1. The derivative compounds were used after being dissolved in DMSO. Only DMSO was added to the negative control group.
After culturing for a total of 14 days, the medium was removed when the differentiation was completed and lipid droplets in the differentiated adipocytes were stained. For this, the cells were washed twice with phosphate buffered saline (PBS), fixed in 10% buffered neutral formalin (BNF) for 1 hour, washed once again with PBS, stained for 1 hour by adding 1 mL of Oil Red O dye, which specifically stains fat red, on the 12-well plate, and washed twice with distilled water. In order to measure the level of triglyceride contained in the differentiated 3T3-L1 cells, the stained lipid droplets were dissolved in 1 mL of isobutanol and optical density (OD) value was measured at 600 nm.

Assay [1] in a line: Liver weight and lipid level in liver tissue of mice fed high-fat test diet. In kind it is in vivo, C57BL/6J mice. As to conditions: 0.05% in high-fat diet, 10 weeks. As to the method:
(§1) The obesity-inducing control diet used in the test was high-fat diet (HFD: 40% fat calorie, 17 g lard+3% corn oil/100 g diet). Diets supplemented with indole-3-carbinol derivatives (B525 and B528) had the same composition as HFD, except that each derivative was included at 0.05% (see Table 2). The diabetic drug metformin was added at 0.1% or the hyperlipidemic drug atorvastatin was added at 0.01% to HFD as controls. The normal diet group (Chow) was fed with commercially available rodent chow.
(§2) 56 5-week-old male C57BL/6J mice (Orient, Korea) were accustomed to the laboratory environment for 1 week while feeding solid feed. Then, they were randomly divided into normal diet, high-fat diet and test groups (n=8/group) and bred for a total of 10 weeks. The diet was given between 10 and 11 a.m. every day together with water. Food intake was measured every day and body weight was measured once a week. In order to avoid transient body weight increase after feed intake, body weight was measured 2 hours after removing the feed. After fasting the test animal for at least 12 hours and anesthetizing with diethyl ether, blood, liver and visceral fat (epididymal fat, perirenal fat, mesenteric fat and retroperitoneal fat) were taken and weighed after washing with 0.1 M PBS (pH 7.4). Blood taken from the abdominal aorta was centrifuged at 1000×g for 15 minutes to separate the plasma.
Lipids were extracted from the liver tissue according to Folch et al.'s method Folch J et al., J Biol. Chem. 226: 497-509 (1957)). After adding 1 mL of distilled water to 0.25 g of liver tissue, the liver tissue was homogenized using a Polytron homogenizer (IKA-Werke GmbH & Co., Ultra-Turrax, Staufen, Germany). After adding 5 mL of chloroform:methanol solution (2:1, v/v) to the homogenate and mixing well, the mixture was centrifuged at 1000×g for 10 minutes. After adding 2 mL of chloroform:methanol solution (2:1, v/v) again to the supernatant, the same procedure was repeated to completely separate the lipid components of the liver. After adding 3 mL of chloroform:methanol:0.05% CaCl2 (3:48:47, v/v/v) solution to the remaining pellets and mixing well for 1 minute, followed by centrifugation at 1000×g for 10 minutes, the resulting pellets were completely dried with nitrogen gas. The dried lipids were dissolved in 1 mL of methanol and then analyzed.
The same kit (Bio Clinical System) as that used for the plasma analysis was used to measure the triglyceride and cholesterol levels of the liver tissue.

A short description of assay [2]: Fasting blood sugar and oral glucose tolerance test in mice fed high-fat test diet. The class given is in vivo, C57BL/6J mice. On the procedure: as §1, §2
On week 8 after feeding the test diet, oral glucose tolerance test was performed for all the groups. After fasting the mouse for 16 hours, glucose (2 g glucose/10 mL distilled water/kg body weight) was orally administered. Before and 15, 30, 60 and 120 minutes after the oral administration, the tail end was cut by about […] and blood was taken. Glucose level was measured using a glucose meter.

Assay [3] in a line: Biochemical analysis of blood (plasma lipids) of mice fed high-fat test diet. The note with it: 0.05% in high-fat diet, 10 weeks. In kind it is in vivo, C57BL/6J mice. As to the method: as §1, §2
After 10 weeks of breeding, total cholesterol, triglyceride and glucose levels in the plasma and lipid level in the liver tissue were measured as follows. Total cholesterol, triglyceride and free fatty acid levels in the plasma were measured twice for each using a commercially available kit (Bio Clinical System).

Assay [4] is described as follows: Body weight gain and visceral fat weight of mice fed high-fat test diet. As to conditions: 0.05% in high-fat diet, 10 weeks. The class given is in vivo, C57BL/6J mice. On the procedure: as §1, §2

With `Cc1ccc(CN2C(=O)C(O)(c3c[nH]c4ccccc34)c3ccccc32)cc1` (stereo not drawn) [B545, 3′-Hydroxy-1′-(4-methylbenzyl)-1′,3′-dihydro-1H,2′H-3,3′-biindol-2′-one], the “differentiation of the preadipocytes 3T3L1” value (from here on “differentiation”) in the assay on 3T3-L1 cells is recorded as “reduced the differentiation of the preadipocytes 3T3L1 in a concentration-dependent manner”.

As to `COc1ccccc1OCCN1C(=O)C(O)(c2c(C)[nH]c3ccccc23)c2ccccc21` (stereo not drawn) [B558, 3′-Hydroxy-1′-[2-(2-methoxyphenoxy)ethyl]-2-methyl-1′,3′-dihydro-1H,2′H-3,3′-biindol-2′-one], the “differentiation” value with 3T3-L1 cells is reported as “reduced the differentiation of the preadipocytes 3T3L1 in a concentration-dependent manner”.

As for `CCN1C(=O)C(O)(c2c(C)[nH]c3ccccc23)c2cc(Br)ccc21` (stereo not drawn) [B528, 5′-Bromo-1′-ethyl-3′-hydroxy-2-methyl-1′,3′-dihydro-1H,2′H-3,3′-biindol-2′-one], in the assay with 3T3-L1 cells, the “differentiation” value is listed as “reduced the differentiation of the preadipocytes 3T3L1 in a concentration-dependent manner” and the “triglyceride accumulation in cells” value is “effectively reduce triglyceride accumulation in cells”. Also, in assay [1], the “appearance of liver tissue as compared to HFD” value is “smaller and darker liver tissue”; the “decrease of cholesterol level in liver tissue as compared to HFD” value amounted to 28%; the “decrease of liver weight as compared to HFD” value is 31%; the “decrease of triglyceride level in liver tissue as compared to HFD” value worked out at 34%. In assay [2] (0.05% in high-fat diet, 8 weeks), the “reduction of fasting blood sugar level as compared to HFD” value was found to be 39%. Also, the “blood glucose level after oral glucose as compared to HFD” value in assay [2] (OGTT, 15, 30, 60 and 120 minutes, week 8) was “decreased blood glucose level at all times”. The “change of blood glucose level after oral glucose as compared to HFD” value in assay [2] (OGTT, after 60 minutes, week 8) is −29%. Also, in assay [2] (OGTT, week 8), the “area under the curve (AUC) of the blood glucose level as compared to HFD” value is listed as “decreased significantly”; the “effect on oral glucose tolerance compared to controls metformin and atorvastatin” value is “excellent effect of improving oral glucose tolerance, better than the controls metformin and atorvastatin”. In addition, in assay [3], the “reduction of arteriosclerotic index in blood plasma as compared to HFD” value worked out at 35%, the “reduction of total cholesterol level in blood plasma as compared to HFD” value was 21% and the “reduction of triglyceride level in blood plasma as compared to HFD” value worked out at 38%. For the same compound, in assay [4], the “decrease of body weight gain as compared to HFD” value amounted to 30%; the “reduction of total visceral fat weight as compared to HFD” value is listed as 26%; the “weight of epididymal fat, perirenal fat, mesenteric fat and retroperitoneal fat as compared to HFD” value is recorded as “significantly reduced”.

Regarding `CCCCN1C(=O)C(O)(c2c[nH]c3ccccc23)c2cc(Br)ccc21` (stereo not drawn) [B540, 5′-Bromo-1′-butyl-3′-hydroxy-1′,3′-dihydro-1H,2′H-3,3′-biindol-2′-one], in the assay with 3T3-L1 cells, the “differentiation” value was “reduced the differentiation of the preadipocytes 3T3L1 in a concentration-dependent manner”.

Regarding `O=C1N(CCc2ccccc2)c2ccccc2C1(O)c1c[nH]c2ccccc12` (stereo not drawn) [B538, 3′-Hydroxy-1′-(2-phenylethyl)-1′,3′-dihydro-1H,2′H-3,3′-biindol-2′-one], in the assay with 3T3-L1 cells, the “differentiation” value is on record as “reduced the differentiation of the preadipocytes 3T3L1 in a concentration-dependent manner” and the “triglyceride accumulation in cells” value is on record as “effectively reduce triglyceride accumulation in cells”.

`CCN1C(=O)C(O)(c2c[nH]c3ccccc23)c2cc(Br)ccc21` (stereo not drawn) [B544, 5′-Bromo-1′-ethyl-3′-hydroxy-1′,3′-dihydro-1H,2′H-3,3′-biindol-2′-one]: in the assay on 3T3-L1 cells, the “differentiation” value is on record as “reduced the differentiation of the preadipocytes 3T3L1 in a concentration-dependent manner”.

Turning to `CC(=O)c1[nH]c2ccccc2c1C(=O)O` [B561, 2-Acetyl-1H-indole-3-carboxylic acid], the “differentiation” value with 3T3-L1 cells is listed as “reduced the differentiation of the preadipocytes 3T3L1 in a concentration-dependent manner”.

Regarding `Cc1[nH]c2ccccc2c1C1(O)C(=O)N(Cc2cccs2)c2ccccc21` (stereo not drawn) [B551, 3′-Hydroxy-2-methyl-1′-(2-thienylmethyl)-1′,3′-dihydro-1H,2′H-3,3′-biindol-2′-one], the “differentiation” value in the assay with 3T3-L1 cells is “reduced the differentiation of the preadipocytes 3T3L1 in a concentration-dependent manner”.

Turning to `O=C1N(Cc2ccc(Cl)cc2)c2ccccc2C1(O)c1c[nH]c2ccccc12` (stereo not drawn) [B546, 1′-(4-Chlorobenzyl)-3′-hydroxy-1′,3′-dihydro-1H,2′H-3,3′-biindol-2′-one], the “differentiation” value in the assay on 3T3-L1 cells is on record as “reduced the differentiation of the preadipocytes 3T3L1 in a concentration-dependent manner”.

`O=C1N(Cc2ccccc2)c2ccccc2C1(O)c1c[nH]c2ccccc12` (stereo not drawn) [B542, 1′-Benzyl-3′-hydroxy-1′,3′-dihydro-1H,2′H-3,3′-biindol-2′-one]: the “differentiation” value with 3T3-L1 cells was “reduced the differentiation of the preadipocytes 3T3L1 in a concentration-dependent manner”.

As for `Cc1ccc(OCCN2C(=O)C(O)(c3c(C)[nH]c4ccccc34)c3ccccc32)cc1` (stereo not drawn) [B556, 3′-Hydroxy-2-methyl-1′-[2-(4-methylphenoxy)ethyl]-1′,3′-dihydro-1H,2′H-3,3′-biindol-2′-one], the “differentiation” value with 3T3-L1 cells is given as “reduced the differentiation of the preadipocytes 3T3L1 in a concentration-dependent manner”.

As to `Cc1ccc(C)c(CN2C(=O)C(O)(c3c(C)[nH]c4ccccc34)c3ccccc32)c1` (stereo not drawn) [B549, 1′-(2,5-Dimethylbenzyl)-3′-hydroxy-2-methyl-1′,3′-dihydro-1H,2′H-3,3′-biindol-2′-one], the “differentiation” value with 3T3-L1 cells is on record as “reduced the differentiation of the preadipocytes 3T3L1 in a concentration-dependent manner”.

Consider `CN1C(=O)C(O)(c2c[nH]c3ccccc23)c2cc(Cl)ccc21` (stereo not drawn) [B521, 5′-Chloro-3′-hydroxy-1′-methyl-1′,3′-dihydro-1H,2′H-3,3′-biindol-2′-one], for which the “differentiation” value in the assay on 3T3-L1 cells is on record as “reduced the differentiation of the preadipocytes 3T3L1 in a concentration-dependent manner”.

Take `Cc1[nH]c2ccccc2c1C1(O)C(=O)N(CCc2ccccc2)c2ccc(Cl)cc21` (stereo not drawn) [B547, 5′-Chloro-3′-hydroxy-2-methyl-1′-(2-phenylethyl)-1′,3′-dihydro-1H,2′H-3,3′-biindol-2′-one]: the “differentiation” value in the assay with 3T3-L1 cells is recorded as “reduced the differentiation of the preadipocytes 3T3L1 in a concentration-dependent manner”.

Turning to `O=C1N(CCc2ccccc2)c2ccc(Br)cc2C1(O)c1c[nH]c2ccccc12` (stereo not drawn) [B518, 5′-Bromo-3′-hydroxy-1′-(2-phenylethyl)-1′,3′-dihydro-1H,2′H-3,3′-biindol-2′-one], in the assay with 3T3-L1 cells, the “differentiation” value is “reduced the differentiation of the preadipocytes 3T3L1 in a concentration-dependent manner” and the “triglyceride accumulation in cells” value is “effectively reduce triglyceride accumulation in cells”.
